In brackets after ≈: the same amount, converted by molar mass. Read-outs that look alike come from different tables or passages of the source.

For data set [1] the following is noted: aqueous solution, 25° C., cited from earlier work; for p I: pI = ½ (pK2 + pK3).
The nature of data set [2]: Solutions of amino acids in water easily prepared at room temperature. The class given is physicochemical. From the text: When dissolving the mixtures according to the invention in water it is necessary to take into consideration the different solubilities of the basic amino acids themselves.
Data set [3] in a line: Solubility of individual components of flavanolignans in the mixture according to Example 1. The class given is physicochemical. Conditions: for solubility: read-out: Solubility of individual component in the mixture according to Example 1. From the text: Solubility of individual components of flavanolignans in the mixture according to Example 1
For data set [4] the following is noted: 25° C., cited from earlier work.
The conditions of data set [5]: cited from earlier work.
Where [6] appears, read: Buffer solution pH 4.5 (Bates, sodium acetate and hydrochloric acid, ionic strength 0.05).

As for `N=C(N)NCCC[C@H](N)C(=O)O` [L-arginine], in data set [1], the pK1 is reported as 2.01, the pK2 was 9.04, the pK3 is 12.48 and the “p I” value is given as 10.76.

Take `NCCCC[C@H](N)C(=O)O` [L-lysine]: in data set [2], the “concentration of amino acid solution in water that can be easily prepared” value is 1.0 M. Also, in data set [1], the pK1 was 2.18, the pK2 is on record as 8.95, the pK3 is on record as 10.53 and the “p I” value is listed as 9.47.

Turning to `COc1cc([C@H]2Oc3cc([C@H]4Oc5cc(O)cc(O)c5C(=O)[C@@H]4O)ccc3O[C@@H]2CO)ccc1O` [Silybin A, silybin A], the “Solubility of individual component in the mixture according to Example 1” value (“Solubility of individual component” below) in data set [3] (setting [6]) is 127.95 µg/mL; in data set [3] (Purified water) it was 178.41 µg/mL.

`COc1cc([C@@H]2Oc3cc([C@H]4Oc5cc(O)cc(O)c5C(=O)[C@@H]4O)ccc3O[C@H]2CO)ccc1O` [Silybin B, silybin B]: the figures for the “Solubility of individual component” value in data set [3] (setting [6]) and in data set [3] (Purified water) were 209.62 µg/mL and 289.05 µg/mL, respectively.

As to `COc1cc(C2Oc3cc([C@H]4Oc5cc(O)cc(O)c5C(=O)[C@@H]4O)ccc3OC2CO)ccc1O` (stereo partly shown) [silybin], the solubility of silybin in data set [4] (Capryl-caprine triglyceride) was 800 ± 500 µg/mL; in data set [4] (Castor oil), 7100 ± 1200 µg/mL; in data set [4] (Ethanol), 225200 ± 5200 µg/mL; in data set [4] (Ethoxy diglycol), 350100 ± 10400 µg/mL; in data set [4] (Ethyl linoleate), 2100 ± 800 µg/mL; in data set [4] (Fish oil), 500 ± 200 µg/mL. Further, the solubility of silybin in data set [4] (Glyceryl monooleate) was 33200 ± 2800 µg/mL; in data set [4] (Polyethylene glycol 200), 345900 ± 9500 µg/mL; in data set [4] (Polyethylene glycol 400/ethanol (1:1)), 342100 ± 7100 µg/mL; in data set [4] (Propylene glycol), 162400 ± 3600 µg/mL; in data set [4] (Tocopherol) it was 20000 ± 1900 µg/mL; in data set [4] (Water), 400 ± 100 µg/mL. Also, the pKa.1 in data set [5] (25° C.) is 7.00; in data set [5] (37° C.), 6.86. The pKa.2 entry in data set [5] (25° C.) and in data set [5] (37° C.) was “pKa.2[25° C.] = 8.77; pKa.2[37° C.] = 8.77” throughout. The values for the pKa.3 in data set [5] (25° C.) and in data set [5] (37° C.) were 9.57 and 9.62, respectively.

In the case of `COc1cc([C@@H]2Oc3c(O)cc([C@H]4Oc5cc(O)cc(O)c5C(=O)[C@@H]4O)cc3[C@H]2CO)ccc1O` [silychristin], the “Solubility of individual component” value in data set [3] (setting [6]) was determined as 241.57 µg/mL. Besides, the “Solubility of individual component” value in data set [3] (Purified water) was determined as 258.24 µg/mL. Also, in data set [5] (25° C.), the pKa.1 is 6.52, the pKa.2 is reported as 7.22 and the pKa.3 is 8.96. In addition, in data set [5] (37° C.), the pKa.1 is 6.62, the pKa.2 is 7.41 and the pKa.3 is 8.94.

`COc1cc([C@@H]2[C@H]3CO[C@@]4(O)C(=O)[C@@H]2C=C([C@H]2Oc5cc(O)cc(O)c5C(=O)[C@@H]2O)[C@@H]34)ccc1O` [silydianin]: the solubility (as a rule, the concentration that dissolves in the medium under given conditions) in data set [3] (aqueous buffer, Buffer solution pH 4.5 (Bates, sodium acetate and hydrochloric acid, ionic strength 0.05)) turned out to be 189 µg/mL (≈ 392 µM). For the same molecule, in data set [3] (purified water, water), the solubility came to 215 µg/mL (≈ 445 µM). Moreover, in data set [5] (25° C.), the pKa.1 is reported as 6.64, the pKa.2 was 7.78 and the pKa.3 is recorded as 9.66. In data set [5] (37° C.), the pKa.1 is 7.10, the pKa.2 is reported as 8.93 and the pKa.3 was 10.06.

For the molecule Isosylibin, the “Solubility of individual component” value in data set [3] (setting [6]) came out at 78.63 µg/mL; in data set [3] (Purified water), 112.90 µg/mL.

The values are drawn from patent US8426459B2, “Composition of flavanolignan and amino acid with improved water solubility” (Agra Group, A.S., priority 2008, dated 2013).
